Each structure is given as a SMILES string.

Assay [1] concerns the target T1, Saccharomyces cerevisiae Icmt (Saccharomyces cerevisiae, UniProt P32584).
T1 construct: A 734 bp EagI-SacII fragment, which contained the gene STE14, was amplified from pSM187; made in house; host or cells: Saccharomyces cerevisiae strain CH2704 (plasmid pCHH10m3N-STE14 in the Ste14p-lacking strain SM1188); membrane fraction
T1 sequence (P32584 1-239): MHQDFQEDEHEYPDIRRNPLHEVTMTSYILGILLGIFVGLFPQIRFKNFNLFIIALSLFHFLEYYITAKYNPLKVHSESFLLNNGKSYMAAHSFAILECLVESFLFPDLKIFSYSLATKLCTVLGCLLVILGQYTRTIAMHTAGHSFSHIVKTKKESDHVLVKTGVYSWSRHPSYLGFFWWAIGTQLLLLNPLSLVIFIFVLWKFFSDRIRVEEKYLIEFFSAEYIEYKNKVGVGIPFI
In words: In vitro vapor diffusion methyltransferase assay, AFC analogues as substrates. It counts as biochemical. Particulars: Relative velocity (compared to AFC) at 125 μM; substrate ability. As to the method:
Previous studies in this laboratory have focused on the isoprenoid substrate specificity of FTase. […] These isoprenoid moieties were chosen in part because the corresponding FPP analogues are alternative substrates for FTase, and can thus be readily incorporated into peptides and proteins. The assays were performed using overexpressed, reconstituted recombinant Saccharomyces cerevisiae Icmt.
(§1) Isolation of Membrane Fraction from Yeast Cells—Mid-log phase yeast cells (2.0-3.0 OD600/mL), grown in SC-URA, media, were harvested by centrifugation at 3500×g for 10 minutes at 4° C., washed with 10 mM NaN3, and resuspended in lysis buffer (0.3 M sorbitol, 10 mM Tris-HCl pH 7.5, 0.1 M NaCl, 5 mM MgCl2, 1% aprotinin, 10 μg/mL leupeptin, 10 μg/in L pepstatin A, 10 μg/mL chymostatin, 10 μg/mL bestatin, 1 mM dithiothreitol, and 2 mM AEBSF) to a final concentration of 800 OD600/mL. After a 15 min incubation on ice, the cells were frozen and thawed twice in liquid N2. The cells were then lysed by passing the mixture twice through a French press. The resultant mixture was centrifuged at 500×g to remove whole cells and other particulate. The supernatant was then treated with 50 U/mL micrococcal nuclease followed by centrifugation at 150,000×g in a Beckman L5 50B centrifuge (45 Ti rotor) for 90 minutes at 4° C., to pellet the membrane fraction. The pellet was resuspended in lysis buffer containing 10% glycerol, aliquoted, and stored at −80° C. Membrane protein concentration was determined using Coomassie Plus Protein Assay Reagent (Pierce Biotechnology) according to the manufacturers instructions, and compared to a BSA standard curve prepared by the same procedure. Protein samples were analyzed by immunoblot analysis and in vitro vapor diffusion methyltransferase assay as described elsewhere.
(§2) In vitro vapor diffusion methyltransferase assay—Methyltrasferase assays were performed in a total volume of 60 μL and a final Tris-HCl concentration of 100 mM, pH 7.5. All reactions contained 20 μM S-adenosyl-[^14C-methyl]-methionine (SAM) and 5 μg of membrane protein from the His-Ste14p overexpressing strain CH2704. Substrate curves were generated by varying the amount of compound in each reaction. […] The 60 μL reactions were incubated at 30° C. for 30 minutes. The reaction was stopped with the addition of 50 μL of 1M NaOH/1% SDS. 100 μL of this mixture is then spotted on folded filter paper (5.5 cm×1.5 cm) and lodged in the neck of a scintillation vial containing 10 mL of scintillation fluid. Hydroxide ion forms a tetrahedral intermediate with the newly formed ^14C-methyl ester on the methyl acceptor. This intermediate then eliminates ^14C-methanol, which diffuses into the scintillation fluid below. The filters were pulled out after 2-3 hours, the vials were shaken well and counted in a liquid scintillation analyzer.

In assay [2] the target is T1, Saccharomyces cerevisiae Icmt. In words: In vitro vapor diffusion methyltransferase assay, inhibition of AFC methylation. It counts as biochemical. To be noted: for Icmt inhibitory ability (in words): inhibition of AFC methylation; for IC50: inhibition curves in the presence of 33 μM AFC. How it is done: Previous studies in this laboratory have focused on the isoprenoid substrate specificity of FTase. We have discovered analogues that are effective alternative substrates, and compounds that are potent inhibitors. […] In the initial study, six isoprenoid-modified analogues (2-7, Chart 1, below) of the minimal Icmt substrate AFC 1 were prepared and evaluated as substrates and as inhibitors of the enzyme. These isoprenoid moieties were chosen in part because the corresponding FPP analogues are alternative substrates for FTase, and can thus be readily incorporated into peptides and proteins. The assays were performed using overexpressed, reconstituted recombinant Saccharomyces cerevisiae Icmt.
as §1
as §2, with “reaction. Inhibition curves were generated by varying the amount of compound in each reaction while in the presence of 33 μM N-acetyl-S-farneslylcysteine (AFC).” for “reaction.”

In the case of `CC(=O)N[C@@H](CSCC=C(C)CCC=C(C)CCC=C(C)C)C(=O)O` [Compound 1, N-acetyl-S-farneslylcysteine, reference compound], the Icmt krel in assay [1] was found to be 100.
With `CC(=O)N[C@@H](CSC/C=C(\CC=C(C)C)CC/C=C(\C)CCC=C(C)C)C(=O)O` [Compound 3, N-Acetyl-S-(3-(3-methylbut-2-enyl)-7,11-dimethyldodeca-2(Z),6(E),10-trien-1-yl)-L-cysteine], the Icmt krel in assay [1] came out at 5.9. Also, the affinity in assay [2] (AFC(protein)-competitive inhibition of Icmt) corresponds to a Ki of 21.3 µM. For the same compound, the “Icmt inhibitory ability (in words)” value in assay [2] was “low micromolar inhibitor of AFC methylation”. For the same compound, the mode of action result in assay [2] (varying AFC at constant inhibitor concentration) was “AFC(protein)—competitive inhibitor of Icmt”.
`CC(=O)N[C@@H](CSC/C=C(/C)CC/C=C(\C)CCC=C(C)C)C(=O)O` [Compound 4, N-Acetyl-S-(3,7,11-trimethyldodeca-2(Z),6(E),10-trien-1-yl)-L-cysteine] gave an Icmt krel in assay [1] of 62.0.
Still for that read-out and setting: next, `CC(=O)N[C@@H](CSC/C=C(\C)CC/C=C(/C)CCC=C(C)C)C(=O)O` [Compound 5, N-Acetyl-S-(3,7,11-trimethyldodeca-2(E),6(Z),10-trien-1-yl)-L-cysteine]: 19.1; `CCCCCCCCCC/C(C)=C/CSC[C@H](NC(C)=O)C(=O)O` [Compound 6]: 24.2; `C=CCC(=CCSC[C@H](NC(C)=O)C(=O)O)CCC=C(C)CCC=C(C)C` [Compound 8, N-Acetyl-S-(3-allyl-7,11-dimethyldodeca-2,6,10-triene-1-yl)-L-cysteine]: 18.6.
On the same count and under the same terms, next, `C=CCC/C(=C\CSC[C@H](NC(C)=O)C(=O)O)CC/C=C(\C)CCC=C(C)C` [Compound 9, N-Acetyl-S-(3-(but-3-enyl)-7,11-dimethyldodeca-2Z,6E,10-trien-1-yl)-L-cysteine]: 35.4; `CC(=O)N[C@@H](CSC/C=C(\C)CC/C=C(\CC=C(C)C)CCC=C(C)C)C(=O)O` [Compound 10, N-Acetyl-S-(7-(3-methylbut-2-enyl)-3,11-dimethyldodeca-2Z,6E,10-trien-1-yl) -L-cysteine]: 35.0.
`CC(=O)N[C@@H](CSC/C=C(\CC=C(C)C)CC/C=C(\C)CC/C=C(\C)CCC=C(C)C)C(=O)O` [Compound 12, N-Acetyl-S-(3-(3-methylbut-2-enyl) 7,11,15-trimethylhexadeca-2Z,6E,10E,14-tetraen-1-yl)-L-cysteine] registered an Icmt krel in assay [1] of 50.0. Moreover, the IC50 in assay [2] is 130 µM.
For `CC(=O)N[C@@H](CSC/C=C(\C)CC/C=C(\CC=C(C)C)CC/C=C(\C)CCC=C(C)C)C(=O)O` [Compound 13, N-Acetyl-S-(7-(3-methylbut-2-enyl) 3,11,15-trimethylhexadeca-2Z,6E,10E,14-tetraen-1-yl)-L-cysteine], in that order: 16.3 and 130 µM.
Consider `CC(=O)N[C@@H](CSC/C=C(\CC=C(C)C)CCc1ccc(-c2ccccc2)cc1)C(=O)O` [Compound 14], for which, in assay [1], the Icmt krel is given as 0.70. In addition, the “Icmt inhibitory ability (in words)” value in assay [2] is on record as “moderately effective inhibitor of Icmt”.
